Measured values reported in publication PMC11106956 (Malaria Journal, 2024).
Where two headings read alike, the source gives them in different places.

Tests used:
methaemoglobin levels = assay: Linear regression of pharmacokinetic parameters against change in methaemoglobin; type: in vivo, human (African males, Mali); conditions: slope (95% CI)
[1] = single oral PQ 0.40-0.50 mg/kg; for Half-life (terminal elimination): median (range) in Table 3; for CF, proportional conversion factor between capillary and venous drug measurements, population estimate (%RSE): plasma; for MTT, absorption mean transit time, population estimate (%RSE): each compound modelled separately
Excerpt: (§1) This study was a part of an open-label, nonrandomized, dose-adjustment trial of the safety of SLD-PQ in G6PD-deficient and G6PD-normal males in Mali without microscopically detected malaria parasite infection. The main clinical trial was separated into two parts, i.e., Part I in adult males (aged 18–50) and Part II in children (aged 5–17). […] Only 28 adult males from the main trial provided pharmacokinetic samples and were included in this study.
(§2) After collection of day 0 samples, each participant received an oral dose of PQ according to his group assignment, after a fatty snack (biscuits) to minimized gastrointestinal symptoms. The study pharmacist prepared a dose by crushing a 15-mg tablet of PQ (Sanofi, Laval, Canada) in 15 mL of drinking water and administered the dose to the nearest 0.1 mL under direct observation. […] Capillary samples (0.5 mL) were collected at 2, 4, and 6 h post-dose. Both venous and capillary blood were collected using EDTA tubes, and centrifuged at 1100–1300×g for 10–20 min to obtain plasma samples. The samples were store immediately at − 80 °C until analysed.
(§3) All compounds were analysed using the liquid chromatography–mass spectrometry (LC–MS) method of Avula et al. [14], modified to employ an ACQUITY UHPLC™, BEH Shield RP18 column (100 mm × 2.1 mm I.D., 1.7 mm) equipped with an LC-18 guard column (Vanguard 2.1 × 5 mm, Waters Corp, Milford, MA, USA). PQ, CPQ and PQCG were separated and eluted within 10-min retention time. The mobile phase, run at a flow rate of 0.25 ml/min, consisted of 0.05% formic acid in water (A) water and 0.05% formic acid in acetonitrile (B) and was applied in a linear gradient elution. […] Samples were injected at 10 μL volume. The limits of quantification in plasma were 5 ng/mL for PQ and PQCG, and 1 ng/mL for CPQ. Quality control samples at 20 ng/mL were run at beginning and end of the batch analyses in duplicate. Intra-assay variability was less than 10%.
(§4) PQ, CPQ, and PQCG concentrations were transformed into their natural logarithms and analysed using a nonlinear mixed-effects modelling approach in NONMEM version 7.4 (Icon Development Solution, Ellicott city, MD). Pirana version 3.0.0 [15], Perl-speaks-NONMEM version 5.3.0 (PsN) [16] and R version 4.2.0 were used for automation, model evaluation, and diagnostics during the model building process. The first-order conditional estimation method with interaction (FOCE-I) was applied for the estimation method. Each compound was modelled separately. Data below the LLOQ was either omitted (M1-method) or incorporated by imputing the first LLOQ data as half of LLOQ (M6-method) [17].
(§5) Pharmacokinetic parameters were implemented as a log-normal distribution as follows: θi=θTV×expηi,θ where θi is the individual i th pharmacokinetic parameter estimate, θTV is the typical value of the population mean estimate, and ηi,θ is the inter-individual variability of the parameter θ for the i th individual, assumed to be normal distribution with zero mean and variance ω^2 . Estimated inter-individual variability below 10% was fixed to zero.
(§6) A linear association between capillary and venous plasma concentrations of all compounds was assumed and modelled using an estimated conversion factor at the population level. Unexplained residual errors were modelled separately for capillary and venous plasma concentrations and implemented as an additive error model on the log-transformed concentrations, equivalent to an exponential error on arithmetic scale.

[2] = cited from earlier work
haemoglobin levels = assay: Linear regression of pharmacokinetic parameters against change in haemoglobin; haemoglobin follow-up to 28 days; type: in vivo, human (African males, Mali); conditions: for Correlation (regression slope) of AUC24 with change in haemoglobin / Correlation (regression slope) of CMAX with change in haemoglobin: slope (95% CI)
clinical = conditions: male, human, plasma, po
Excerpt: as §1, §2, §3, §4, §5, §6

haemoglobin = conditions: G6PD-deficient individual, cited from earlier work
[3] = G6PD-deficient individuals (n = 18)
[4] = G6PD-normal individuals (n = 10)
[5] = typical individual 62.5 kg, metabolites dosed as PQ molar dose 1:1
[6] = background statement, literature

Q: With COc1cc(NC(C)CCC(=O)O)c2ncccc2c1 (stereo not drawn) [Carboxy-primaquine] as the compound, how does the “Correlation (regression slope) of AUC24 with change in methaemoglobin” value (methaemoglobin levels; [3]) read?
A: -1914 (95% CI: -8430 to 4602) p-value = 0.534 % mHB change per 1 ng·hr/mL

Q: What about the “Correlation (regression slope) of CMAX with change in methaemoglobin” value (methaemoglobin levels; [3]) of the same compound?
A: -49.4 (95% CI: -341 to 242) p-value = 0.719 % mHB change per 1 ng/mL

Q: What about the “Correlation (regression slope) of AUC24 with change in methaemoglobin” value (methaemoglobin levels; [4]) of the same compound?
A: 1948 (95% CI: -12127 to 16023) p-value = 0.720 % mHB change per 1 ng·hr/mL

Q: And the “Correlation (regression slope) of CMAX with change in methaemoglobin” value (methaemoglobin levels; [4])?
A: 119 (95% CI: -351 to 589) p-value = 0.521 % mHB change per 1 ng/mL

Q: What about the “Half-life (terminal elimination)” value ([1]; n = 28) of the same compound?
A: 469 (325–1870) h

Q: And the “AUC24, area under the concentration-time curve up to 24 h” value ([1]; median (range), n = 28)?
A: 8030 (1490–12,800) h × ng/mL

Q: And the “CMAX, maximum concentration” value ([1]; median (range), n = 28)?
A: 338 (74.3–546) ng/mL

Q: And the “TMAX, time to maximum concentration” value ([1]; median (range), n = 28)?
A: 4.57 (2.19–18.1) h

Q: What about the “CF, proportional conversion factor between capillary and venous drug measurements, population estimate (%RSE)” value [1] of the same compound?
A: 69.1 (3.83%)

Q: And the terminal elimination half-life ([1]; sampling only to 24 h)?
A: approximately 19.5 days

Q: And the “MTT, absorption mean transit time, population estimate (%RSE)” value ([1]; typical individual 62.5 kg)?
A: 1.24 (11.7%) h

Q: And the “CL/F, apparent elimination clearance, population estimate (%RSE)” value [1, 5]?
A: 0.129 (28.5%) L/h

Q: And the “VC/F, apparent volume of distribution of the central compartment, population estimate (%RSE)” value [1, 5]?
A: 93.3 (7.00%) L

Q: And the “terminal half-life previously reported” value ([2]; healthy volunteers)?
A: 15.6 h

Q: What about the “Correlation (regression slope) of AUC24 with change in haemoglobin” value (haemoglobin levels; [3]) of the same compound?
A: 195 (95% CI: -58.7 to 448) p = 0.123 % HB change per 1 ng·hr/mL

Q: And the “Correlation (regression slope) of CMAX with change in haemoglobin” value (haemoglobin levels; [3])?
A: 9.27 (95% CI: -1.25 to 19.8) p = 0.0803 % HB change per 1 ng/mL

Q: And the “Correlation (regression slope) of AUC24 with change in haemoglobin” value (haemoglobin levels; [4])?
A: -206 (95% CI: -555 to 143) p = 0.210 % HB change per 1 ng·hr/mL

Q: And the “Correlation (regression slope) of CMAX with change in haemoglobin” value (haemoglobin levels; [4])?
A: -4.63 (95% CI: -18.4 to 9.13) p = 0.460 % HB change per 1 ng/mL

Q: With COc1cc(NC(C)CCCN)c2ncccc2c1 (stereo not drawn) [Primaquine, reference compound] as the compound, how does the Tmax (clinical) read?
A: 0.872 h

Q: What about the half-life (clinical; Half-life (terminal elimination), median (range) in Table 3, single oral PQ 0.40-0.50 mg/kg, n = 28) of the same compound?
A: ~7.42 h

Q: What about the “Half-life (terminal elimination)” value ([1]; n = 28) of the same compound?
A: 7.42 (7.04–7.93) h

Q: And the “CF, proportional conversion factor between capillary and venous drug measurements, population estimate (%RSE)” value [1]?
A: 32.9 (6.89%)

Q: And the “MTT, absorption mean transit time, population estimate (%RSE)” value ([1]; typical individual 62.5 kg)?
A: 0.563 (18.7%) h

Q: What about the “CL/F, apparent elimination clearance, population estimate (%RSE)” value [1, 5] of the same compound?
A: 15.4 (9.57%) L/h

Q: And the bioavailability [2, 6]?
A: 96%

Q: What about the terminal half-life [2, 6] of the same compound?
A: 5 to 6 h

Q: And the “predicted median reduction of haemoglobin” value (haemoglobin; 0.25 mg/kg SLD-PQ, 90% CI 0.12-0.65)?
A: 0.35 g/dL

Q: And the “predicted median reduction of haemoglobin” value (haemoglobin; 0.40 mg/kg SLD-PQ, 90% CI 0.21-1.00)?
A: 0.56 g/dL

Q: What about the “haemoglobin decline after PQ administration” value (haemoglobin levels; in vivo) of the same compound?
A: no significant haemoglobin declines

Q: What about the haematological safety (haemoglobin levels; in vivo, 0.5 mg/kg) of the same compound?
A: haematologically safe
